Source: patent publication US5677419A, “Cyclic vasoactive peptide analogs” (Hoffmann-La Roche Inc., priority 1994, dated 1997)
pEC50: −log10 of the molar value. Where a SMILES comes first, the peptide text is derived from it. Bridges are numbered along the chain shown (N, C = ends). [ ]: non-standard residue; d: D form. The star is where a group is joined. Tyr(3-OMe) = COc1cc(C[C@H](N)C(=O)O)ccc1O; Phe(4-F) = N[C@@H](Cc1ccc(F)cc1)C(=O)O; NMeA = CN[C@@H](C)C(=O)O; Nle = CCCC[C@H](N)C(=O)O; Acm = CC(=O)NC*

Columns and labels:
guinea pigs = experiment: In vivo bronchodilator activity by tracheal instillation against histamine challenge; set-up: species or system guinea pig; settings: anesthetized male guinea pigs, inhibition of histamine (i.v.)-induced rise in tracheal pressure
Procedure: The in vivo bronchodilator activity of VIP and VIP analogs in guinea pigs was assessed by the tracheal instillation route of administration. This technique utilized male guinea pigs (Hartley strain, Charles River) weighing 400-600 g. Animals were anesthetized with urethane (2 g/kg) intraperitoneally and a polyethylene cannula was inserted into the jugular vein for intraveneous drug administration.
The animals were tracheotomized and dosing solutions of distilled water or test compound dissolved in distilled water were administered into the trachea, approximately three-quarters the distance to the carina with a pipette. The concentration of the dosing solution was adjusted to deliver a constant volume of […]. The animals were placed supine for one minute to aid drug delivery to the lung. One minute later, spontaneous breathing was arrested with succinylcholine chloride (1.2 mg/kg) administered intraveneously, and the animals were ventilated with a HARVARD Model 680 small animal respirator set at 40 breaths/min and 4.0 cm^3 stroke volume. The animals were challenged with a maximal constrictory dose of histamine ([…], i.v.) and tracheal pressure (cm of water) was recorded from a STATHAM pressure transducer (P 32 AA).
The change in tracheal pressure was averaged for at least 3 control and 3 drug-treated animals and percent inhibition was calculated. The relative potency of compounds administered by the instillation route was determined by administering various doses of test compound and calculating the median effective dose (ED50 value). The ED50 was determined from log dose-response curves generated by at least 3 doses that caused inhibitory effects between 10% and 90%. The correlation coefficients for the regression line of each compound was always greater than 0.95.
For determination of the time course of inhibition for various compounds, the time between administration of compound and challenge with histamine was varied. The time course of activity was calculated as the time when inhibition decreased to 40%.
The results summarized in Table II show the in vivo bronchodilator activity of the VIP analogs in comparison to native VIP.

[1] = test system: guinea pig tracheal smooth muscle; experiment: Tracheal relaxant activity of VIP analogs on isolated guinea pig tracheal rings; assay type: cell-based; settings: cumulative concentration response, relaxation as % of maximum response to VIP (10^-6 M=100%), three tissues pooled, linear regression
Procedure, shortened: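 Male guinea pig tracheal rings under 1.5 g resting tension in Krebs at 37° C, 95% O2/5% CO2, isometric tension. Cumulative concentration-response curves; relaxation as % of response to 10^-6 M VIP added at end; three tissues pooled, EC50 by linear regression.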

Row | Compound | pEC50 [1] | Bronchodilator activity of VIP analogs in guinea pigs, ED50 (guinea pigs) [μg]
1 | CCCC[C@H](NC(=O)[C@H](CCC(N)=O)NC(=O)[C@H](CCCCN)NC(=O)[C@H](CCCNC(=N)N)NC(=O)[C@H](CC(C)C)NC(=O)[C@H](CCCCN)NC(=O)[C@@H](NC(=O)[C@H](Cc1ccc(O)cc1)NC(=O)[C@H](CC(N)=O)NC(=O)[C@H](CC(=O)O)NC(=O)[C@@H](NC(=O)[C@H](Cc1ccc(F)cc1)NC(=O)[C@@H](NC(=O)[C@H](C)NC(=O)[C@H](CC(=O)O)NC(=O)[C@H](CO)NC(=O)[C@H](Cc1c[nH]cn1)NC(C)=O)C(C)C)[C@@H](C)O)[C@@H](C)O)C(=O)N[C@@H](C)C(=O)N[C@@H](C)C(=O)N[C@@H](CCCCN)C(=O)N[C@H]1CCCCNC(=O)C[C@@H](C(=O)N[C@H](C(=O)N[C@@H](CC(C)C)C(=O)N[C@H](C(=O)NCC(=O)NCC(=O)N[C@@H](CSCNC(C)=O)C(N)=O)[C@@H](C)O)C(C)C)NC(=O)[C@H](CC(N)=O)NC(=O)[C@H](CC(C)C)NC(=O)[C@H](Cc2ccc(O)cc2)NC1=O [SEQ ID NO:32, Ac-[p-F-Phe^6,Lys^12,Nle^17,Ala^19,Asp^25,Val^26,Thr^28,Gly^29,30,Cys(Acm)^31]-VIP (1-31)-NH2 cyclo (Lys^21 →Asp^25)] (Ac-HSDAV[Phe(4-F)]TDNYTKLRKQ[Nle]AAKKYLNDVLTGGC(Acm)-NH2; lactam 21-25) | 9.36 | 0.19
2 | CCCC[C@H](NC(=O)[C@@H]1CCC(=O)NCCCC[C@H](NC(=O)[C@@H](NC(=O)[C@H](Cc2ccc(O)cc2)NC(=O)[C@H](CC(N)=O)NC(=O)[C@H](CC(=O)O)NC(=O)[C@@H](NC(=O)[C@H](Cc2ccccc2)NC(=O)[C@@H](NC(=O)[C@H](C)NC(=O)[C@H](CC(=O)O)NC(=O)[C@H](CO)NC(=O)[C@H](Cc2c[nH]cn2)NC(C)=O)C(C)C)[C@@H](C)O)[C@@H](C)O)C(=O)N[C@@H](CC(C)C)C(=O)N[C@@H](CCCNC(=N)N)C(=O)N[C@@H](CCCCN)C(=O)N1)C(=O)N[C@@H](C)C(=O)N[C@H](C(=O)N[C@@H](CCCCN)C(=O)N[C@@H](CCCCN)C(=O)N[C@@H](Cc1ccc(O)cc1)C(=O)N[C@@H](CC(C)C)C(=O)N[C@@H](CC(N)=O)C(=O)N[C@@H](CO)C(=O)N[C@H](C(=O)N[C@@H](CC(C)C)C(=O)N[C@H](C(N)=O)[C@@H](C)O)C(C)C)C(C)C [SEQ ID NO:26, Ac-[Lys^12,Glu^16,Nle^17,Val^26,Thr^28]-VIP cyclo (Lys^12 →Glu^16)] (Ac-HSDAVFTDNYTKLRKE[Nle]AVKKYLNSVLT-NH2; lactam 12-16) | 7.43 | 39
3 | CCCC[C@H](NC(=O)[C@H](CCC(N)=O)NC(=O)[C@H](CCCCN)NC(=O)[C@H](CCCNC(=N)N)NC(=O)[C@H](CC(C)C)NC(=O)[C@H](CCCCN)NC(=O)[C@@H](NC(=O)[C@H](Cc1ccc(O)cc1)NC(=O)[C@H](CC(N)=O)NC(=O)[C@H](CC(=O)O)NC(=O)[C@@H](NC(=O)[C@H](Cc1ccccc1)NC(=O)[C@@H](NC(=O)[C@H](C)NC(=O)[C@H](CC(=O)O)NC(=O)[C@H](CO)NC(=O)[C@H](C)N(C)C(C)=O)C(C)C)[C@@H](C)O)[C@@H](C)O)C(=O)N[C@@H](C)C(=O)N[C@@H](C)C(=O)N[C@@H](CCCCN)C(=O)N[C@H]1CCCCNC(=O)C[C@@H](C(=O)N[C@H](C(=O)N[C@@H](CC(C)C)C(=O)N[C@H](C(N)=O)[C@@H](C)O)C(C)C)NC(=O)[C@H](CC(N)=O)NC(=O)[C@H](CC(C)C)NC(=O)[C@H](Cc2ccc(O)cc2)NC1=O [SEQ ID NO:34, Ac-[N-Me-Ala^1,Lys^12,Nle^17,Ala^19,Asp^25,Val^26,Thr^28]-VIP cyclo (Lys^21 →Asp^25)] (Ac-[NMeA]SDAVFTDNYTKLRKQ[Nle]AAKKYLNDVLT-NH2; lactam 21-25) | 9.15 | 1.0
4 | CCCC[C@H](NC(=O)[C@H](CCC(N)=O)NC(=O)[C@H](CCCCN)NC(=O)[C@H](CCCNC(=N)N)NC(=O)[C@H](CC(C)C)NC(=O)[C@H](CCCCN)NC(=O)[C@@H](NC(=O)[C@H](Cc1ccc(O)cc1)NC(=O)[C@H](CC(N)=O)NC(=O)[C@H](CC(=O)O)NC(=O)[C@@H](NC(=O)[C@H](Cc1ccccc1)NC(=O)[C@@H](NC(=O)[C@H](C)NC(=O)[C@H](CC(=O)O)NC(=O)[C@H](CO)NC(=O)[C@H](Cc1c[nH]cn1)NC(C)=O)C(C)C)[C@@H](C)O)[C@@H](C)O)C(=O)N[C@@H](C)C(=O)N[C@@H](C)C(=O)N[C@@H](CCCCN)C(=O)N[C@H]1CCCCNC(=O)C[C@@H](C(=O)N[C@H](C(=O)N[C@@H](CC(C)C)C(=O)N[C@H](C(N)=O)[C@@H](C)O)C(C)C)NC(=O)[C@H](CC(N)=O)NC(=O)[C@H](CC(C)C)NC(=O)[C@H](Cc2ccc(O)c(OC)c2)NC1=O [SEQ ID NO:55, Ac-[Lys^12,Nle^17,Ala^19,m-OCH3 -Tyr^22,Asp^25,Val^26,Thr^28]-VIP cyclo (Lys^21 →Asp^25)] (Ac-HSDAVFTDNYTKLRKQ[Nle]AAKK[Tyr(3-OMe)]LNDVLT-NH2; lactam 21-25) | 9.51 | 0.14
5 | CCCC[C@H](NC(=O)[C@H](CCC(N)=O)NC(=O)[C@H](CCCCN)NC(=O)[C@H](CCCNC(=N)N)NC(=O)[C@H](CC(C)C)NC(=O)[C@H](CCCCN)NC(=O)[C@@H](NC(=O)[C@H](Cc1ccc(O)cc1)NC(=O)[C@H](CC(N)=O)NC(=O)[C@H](CC(=O)O)NC(=O)[C@@H](NC(=O)[C@H](Cc1ccccc1)NC(=O)[C@@H](NC(=O)[C@H](C)NC(=O)[C@H](CC(=O)O)NC(=O)[C@H](CO)NC(=O)[C@H](Cc1c[nH]cn1)NC(C)=O)C(C)C)[C@@H](C)O)[C@@H](C)O)C(=O)N[C@@H](C)C(=O)N[C@@H](C)C(=O)N[C@@H](CCCCN)C(=O)N[C@H]1CCCCNC(=O)C[C@@H](C(=O)N[C@@H](CC(C)C)C(=O)N[C@@H](CCCCN)C(=O)N[C@@H](CCCCN)C(N)=O)NC(=O)[C@H](CC(N)=O)NC(=O)[C@H](CC(C)C)NC(=O)[C@H](Cc2ccc(O)cc2)NC1=O [SEQ ID NO:38, Ac-[Lys^12,Nle^17,Ala^19,Asp^25,Leu^26,Lys^27,28]-VIP cyclo (Lys^21 →Asp^25)] (Ac-HSDAVFTDNYTKLRKQ[Nle]AAKKYLNDLKK-NH2; lactam 21-25) | 9.89 | 0.09

Second part, led by results:

Row | pEC50 [1] | Compound | Bronchodilator activity of VIP analogs in guinea pigs, ED50 (guinea pigs) [μg]
6 | 9.37 | CCCC[C@H](NC(=O)[C@H](CCC(N)=O)NC(=O)[C@H](CCCCN)NC(=O)[C@H](CCCNC(=N)N)NC(=O)[C@H](CC(C)C)NC(=O)[C@H](CCCCN)NC(=O)[C@@H](NC(=O)[C@H](Cc1ccc(O)cc1)NC(=O)[C@H](CC(N)=O)NC(=O)[C@H](CCC(=O)O)NC(=O)[C@@H](NC(=O)[C@H](Cc1ccccc1)NC(=O)[C@@H](NC(=O)[C@H](C)NC(=O)[C@H](CC(=O)O)NC(=O)[C@H](CO)NC(=O)[C@H](Cc1c[nH]cn1)NC(C)=O)C(C)C)[C@@H](C)O)[C@@H](C)O)C(=O)N[C@@H](C)C(=O)N[C@H](C(=O)N[C@@H](CCCCN)C(=O)N[C@H]1CCCCNC(=O)C[C@@H](C(=O)N[C@@H](CC(C)C)C(=O)N[C@@H](CCCCN)C(=O)N[C@@H](CCCCN)C(=O)NCC(=O)NCC(=O)N[C@H](C(N)=O)[C@@H](C)O)NC(=O)[C@H](CC(N)=O)NC(=O)[C@H](CC(C)C)NC(=O)[C@H](Cc2ccc(O)cc2)NC1=O)C(C)C [SEQ ID NO:68, Ac-[Glu^8,Lys^12,Nle^17,Asp^25,Leu^26,Lys^27,28,Gly^29,30,Thr^31]-VIP cyclo (Lys^21 →Asp^25)] (Ac-HSDAVFTENYTKLRKQ[Nle]AVKKYLNDLKKGGT-NH2; lactam 21-25) | 0.04
7 | 8.28 | CCCC[C@H](NC(=O)[C@H](CCC(N)=O)NC(=O)[C@H](CCCCN)NC(=O)[C@H](CCCNC(=N)N)NC(=O)[C@H](CC(C)C)NC(=O)[C@H](CCCCN)NC(=O)[C@@H](NC(=O)[C@H](Cc1ccc(O)cc1)NC(=O)[C@H](CC(N)=O)NC(=O)[C@H](CC(=O)O)NC(=O)[C@@H](NC(=O)[C@H](Cc1ccccc1)NC(=O)[C@@H](NC(=O)[C@H](C)NC(=O)[C@H](CC(=O)O)NC(=O)[C@H](CO)NC(=O)[C@H](Cc1c[nH]cn1)NC(C)=O)C(C)C)[C@@H](C)O)[C@@H](C)O)C(=O)N[C@@H](C)C(=O)N[C@H](C(=O)N[C@H]1CCCCNC(=O)C[C@@H](C(=O)N[C@@H](CO)C(=O)N[C@H](C(=O)N[C@@H](CC(C)C)C(=O)N[C@H](C(N)=O)[C@@H](C)O)C(C)C)NC(=O)[C@H](CC(C)C)NC(=O)[C@H](Cc2ccc(O)cc2)NC(=O)[C@H](CCCCN)NC1=O)C(C)C [SEQ ID NO:27, Ac-[Lys^12,Nle^17,Asp^24,Val^26,Thr^28]-VIP cyclo (Lys^20 →Asp^24)] (Ac-HSDAVFTDNYTKLRKQ[Nle]AVKKYLDSVLT-NH2; lactam 20-24) | 2.3
